These results are taken from ChEMBL document CHEMBL1139273, “Aryl aminopyrazole benzamides as oral non-steroidal selective glucocorticoid receptor agonists” (Bioorg Med Chem Lett, 2009).

Data set [1] in a line: Oral bioavailability in Sprague-Dawley rat at 1 mg/kg. The class given is ADME, organism-based. Conditions: in vivo.
The target in data set [2] is Cytochrome P450 2C19 (Homo sapiens, UniProt P33261). In words: Inhibition of CYP2C19. The class given is ADME.
Data set [3] is described as follows: Volume of distribution at steady state in Sprague-Dawley rat at 1 mg/kg, iv and 1 mg/kg, po. The data set is classed as ADME, organism-based. As to conditions: in vivo, read-out: Vdss.
The target in data set [4] is Cytochrome P450 2D6 (Homo sapiens, UniProt P10635). In words: Inhibition of CYP2D6. The class given is ADME.
Sequence of Cytochrome P450 2D6 (P10635 whole entry): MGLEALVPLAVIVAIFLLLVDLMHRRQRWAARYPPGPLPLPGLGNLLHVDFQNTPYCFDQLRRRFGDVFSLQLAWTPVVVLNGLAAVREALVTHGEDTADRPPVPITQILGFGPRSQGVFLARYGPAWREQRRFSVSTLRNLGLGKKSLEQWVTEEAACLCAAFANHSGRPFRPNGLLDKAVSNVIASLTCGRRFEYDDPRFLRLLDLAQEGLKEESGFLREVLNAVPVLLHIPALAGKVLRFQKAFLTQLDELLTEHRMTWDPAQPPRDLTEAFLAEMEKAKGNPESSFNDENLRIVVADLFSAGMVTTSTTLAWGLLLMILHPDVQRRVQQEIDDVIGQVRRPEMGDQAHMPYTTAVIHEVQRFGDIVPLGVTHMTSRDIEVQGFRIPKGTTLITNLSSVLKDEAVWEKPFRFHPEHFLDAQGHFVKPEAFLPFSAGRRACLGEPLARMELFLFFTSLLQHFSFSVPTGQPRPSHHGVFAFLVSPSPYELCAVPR
The subject of data set [5] is A549. As to the kind of experiment: Inhibition of TNF-induced NFkappaB activation in human A549 cells after 15 hrs relative to Dexamethasone. Also noted: scale not given: the % may be the effect or the level left. The class given is cell-based.
Data set [6] can be described thus: Clearance in Sprague-Dawley rat at 1 mg/kg, iv and 1 mg/kg, po. The class given is ADME, organism-based. Conditions: in vivo.
Data set [7] addresses Albumin (Homo sapiens, UniProt P02768). In words: Binding affinity to human serum albumin by fast gradient HPLC. Conditions: isolated protein. The class given is ADME.
In data set [8] the target is T1, Glucocorticoid receptor (Homo sapiens, UniProt P04150).
T1 sequence (P04150 whole entry): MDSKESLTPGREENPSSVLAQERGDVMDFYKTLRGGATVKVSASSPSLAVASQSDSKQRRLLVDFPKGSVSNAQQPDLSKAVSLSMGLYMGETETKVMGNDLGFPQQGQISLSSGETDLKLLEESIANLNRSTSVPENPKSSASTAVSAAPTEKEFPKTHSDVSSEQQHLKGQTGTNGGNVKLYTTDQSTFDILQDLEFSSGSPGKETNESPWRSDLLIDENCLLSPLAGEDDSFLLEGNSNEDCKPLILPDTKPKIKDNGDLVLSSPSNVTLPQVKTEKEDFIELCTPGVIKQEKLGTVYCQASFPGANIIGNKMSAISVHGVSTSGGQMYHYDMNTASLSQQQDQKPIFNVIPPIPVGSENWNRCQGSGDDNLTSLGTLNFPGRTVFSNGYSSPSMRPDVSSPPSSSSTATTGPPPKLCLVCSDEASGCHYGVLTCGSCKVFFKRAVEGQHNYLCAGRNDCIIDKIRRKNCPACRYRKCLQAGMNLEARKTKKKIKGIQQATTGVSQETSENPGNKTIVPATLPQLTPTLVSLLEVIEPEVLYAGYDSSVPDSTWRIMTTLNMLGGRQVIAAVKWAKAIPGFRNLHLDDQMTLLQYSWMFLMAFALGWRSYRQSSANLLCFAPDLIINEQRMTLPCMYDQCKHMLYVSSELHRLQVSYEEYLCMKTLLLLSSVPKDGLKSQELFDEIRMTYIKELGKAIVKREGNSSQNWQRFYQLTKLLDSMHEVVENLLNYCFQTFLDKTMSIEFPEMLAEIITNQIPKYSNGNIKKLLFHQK
Description: Displacement of fluorescent labelled Dexamethasone from glucocorticoid receptor

Data set [9] addresses Cytochrome P450 2C9 (Homo sapiens, UniProt P11712). As to the kind of experiment: Inhibition of CYP2C9. The class given is ADME.
A short description of data set [10]: Protein binding in human plasma by ultrafiltration. The data set is classed as ADME, cell-free. As to conditions: read-out: PPB (converted).
The target of data set [11] is T1, Glucocorticoid receptor. This is another data set of the same source.
Description: Agonist activity at human glucocorticoid receptor in human A549 cells assessed as transcriptional activity by MMTV luciferase reporter gene assay
For data set [12], the target named is Cytochrome P450 3A4 (Homo sapiens, UniProt P08684).
Sequence of Cytochrome P450 3A4 (P08684 whole entry): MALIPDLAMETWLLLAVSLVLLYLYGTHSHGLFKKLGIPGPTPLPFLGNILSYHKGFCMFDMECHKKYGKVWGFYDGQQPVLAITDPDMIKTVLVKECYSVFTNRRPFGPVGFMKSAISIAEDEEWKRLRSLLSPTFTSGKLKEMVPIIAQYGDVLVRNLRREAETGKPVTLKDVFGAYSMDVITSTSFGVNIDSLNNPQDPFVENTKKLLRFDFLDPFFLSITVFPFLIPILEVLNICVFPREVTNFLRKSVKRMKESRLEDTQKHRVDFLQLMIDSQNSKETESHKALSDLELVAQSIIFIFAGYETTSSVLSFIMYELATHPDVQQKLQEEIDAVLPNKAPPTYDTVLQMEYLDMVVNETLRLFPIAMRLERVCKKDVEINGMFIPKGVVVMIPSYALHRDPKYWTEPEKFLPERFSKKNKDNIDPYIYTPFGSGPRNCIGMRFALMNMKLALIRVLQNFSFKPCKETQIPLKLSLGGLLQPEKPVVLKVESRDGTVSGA
Data set [13] can be described thus: Inhibition of TNF-induced NF-kappaB activation in human A549 cells after 15 hrs. Conditions: Homo sapiens, A549, 15 h, read-out: pIC50 (converted).
In data set [14] the target is T2, Cytochrome P450 1A2 (Homo sapiens, UniProt P05177).
T2 sequence (P05177 whole entry): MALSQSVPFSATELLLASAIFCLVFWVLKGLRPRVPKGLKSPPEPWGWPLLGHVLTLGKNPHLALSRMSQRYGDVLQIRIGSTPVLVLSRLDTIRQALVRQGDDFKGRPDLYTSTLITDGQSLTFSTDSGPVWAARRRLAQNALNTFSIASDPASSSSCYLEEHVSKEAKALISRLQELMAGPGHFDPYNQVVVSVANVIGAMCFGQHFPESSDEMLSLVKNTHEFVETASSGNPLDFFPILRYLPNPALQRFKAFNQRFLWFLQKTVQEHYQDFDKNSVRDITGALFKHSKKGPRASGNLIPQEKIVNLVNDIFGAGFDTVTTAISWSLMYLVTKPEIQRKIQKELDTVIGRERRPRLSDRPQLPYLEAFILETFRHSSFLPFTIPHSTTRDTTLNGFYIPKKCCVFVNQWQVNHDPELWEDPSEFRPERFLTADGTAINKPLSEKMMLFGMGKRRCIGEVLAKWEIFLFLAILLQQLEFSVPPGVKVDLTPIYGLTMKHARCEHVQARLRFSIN
In words: Inhibition of CYP1A2. The class given is ADME.

pEC50, pIC50: −log10 of the molar value.

As usually defined, the bioavailability is the share of a dose that reaches the circulation, judged against a reference dose that is usually intravenous. As usually defined, the pIC50 is −log10 of the IC50, conventionally taken in molar units. By pEC50 is commonly meant the negative decadic logarithm of the EC50, by convention in mol/L.

Sequence of Albumin (P02768 whole entry): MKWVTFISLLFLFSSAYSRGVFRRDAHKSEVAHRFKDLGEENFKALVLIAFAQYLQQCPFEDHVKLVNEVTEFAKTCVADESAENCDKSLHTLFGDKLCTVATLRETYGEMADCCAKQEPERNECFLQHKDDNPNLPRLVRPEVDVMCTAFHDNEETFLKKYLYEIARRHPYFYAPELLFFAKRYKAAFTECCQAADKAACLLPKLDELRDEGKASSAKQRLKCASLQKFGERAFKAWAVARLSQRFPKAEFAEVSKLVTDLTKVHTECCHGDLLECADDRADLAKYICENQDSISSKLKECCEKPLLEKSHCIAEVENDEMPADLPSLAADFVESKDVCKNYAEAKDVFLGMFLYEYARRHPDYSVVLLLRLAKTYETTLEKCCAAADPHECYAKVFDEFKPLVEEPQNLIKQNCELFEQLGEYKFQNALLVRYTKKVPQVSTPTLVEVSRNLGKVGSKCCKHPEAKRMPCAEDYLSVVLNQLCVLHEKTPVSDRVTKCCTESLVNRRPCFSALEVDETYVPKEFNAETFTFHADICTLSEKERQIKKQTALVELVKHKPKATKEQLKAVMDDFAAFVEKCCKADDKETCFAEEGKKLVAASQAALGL
Sequence of Cytochrome P450 2C19 (P33261 whole entry): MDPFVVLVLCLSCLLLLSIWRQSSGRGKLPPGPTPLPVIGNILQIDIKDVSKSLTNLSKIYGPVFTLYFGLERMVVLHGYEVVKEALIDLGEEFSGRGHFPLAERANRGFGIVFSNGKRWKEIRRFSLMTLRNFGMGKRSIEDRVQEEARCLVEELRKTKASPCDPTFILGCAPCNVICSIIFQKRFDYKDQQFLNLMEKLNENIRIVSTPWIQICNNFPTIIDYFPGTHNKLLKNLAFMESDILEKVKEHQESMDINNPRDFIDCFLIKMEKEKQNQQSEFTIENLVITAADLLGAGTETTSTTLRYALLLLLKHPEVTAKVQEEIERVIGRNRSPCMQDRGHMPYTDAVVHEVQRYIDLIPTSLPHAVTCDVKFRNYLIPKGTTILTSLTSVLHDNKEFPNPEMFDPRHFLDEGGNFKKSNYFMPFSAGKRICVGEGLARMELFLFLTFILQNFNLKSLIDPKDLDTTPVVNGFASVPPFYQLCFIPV
Sequence of Cytochrome P450 2C9 (P11712 whole entry): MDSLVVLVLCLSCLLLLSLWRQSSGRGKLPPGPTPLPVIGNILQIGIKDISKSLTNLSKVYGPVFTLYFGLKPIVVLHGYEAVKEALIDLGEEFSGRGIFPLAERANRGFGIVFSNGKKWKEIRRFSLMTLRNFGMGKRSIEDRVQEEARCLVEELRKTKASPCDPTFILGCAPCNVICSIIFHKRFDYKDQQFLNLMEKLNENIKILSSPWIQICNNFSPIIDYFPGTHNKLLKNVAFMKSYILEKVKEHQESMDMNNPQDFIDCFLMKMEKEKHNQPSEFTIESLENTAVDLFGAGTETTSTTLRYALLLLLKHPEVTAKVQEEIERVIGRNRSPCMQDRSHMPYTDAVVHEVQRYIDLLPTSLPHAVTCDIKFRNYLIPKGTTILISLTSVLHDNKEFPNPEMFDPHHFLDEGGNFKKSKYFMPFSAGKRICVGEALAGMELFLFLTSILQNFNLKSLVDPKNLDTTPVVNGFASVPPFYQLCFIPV

In [1], `CCN(CC(O)(CNC(=O)c1cnn(-c2ccc(F)cc2)c1N)C(F)(F)F)C(=O)c1c(F)cccc1F` (stereo not drawn) came in with a bioavailability of 36%. Also, the pIC50 in data set [2] is 4.74; in data set [4], 4.13; in data set [8] it was 8.10; in data set [9], 5.10; in [12], 5.70; in [14], 4.00. Also, in data set [3], the Vd stood at 2.8 L/kg. Also, the Activity is 104% in [5] and 93% in data set [7]. In data set [6], the clearance was found to be 27 mL/min/kg. The fraction unbound in data set [10] was 0.03. Further, the pEC50 in [11] was 8.10. In addition, the IC50 in [13] was 0.00251 µM.
For the compound `CCN(CC(O)(CNC(=O)c1cnn(-c2ccc(F)cc2)c1N)C(F)(F)F)C(=O)c1ncccc1Cl` (stereo not drawn), the pIC50 was 4.00 in data set [2]; 4.00 in data set [4]; 4.85 in data set [9]; 5.40 in [12]; 4.00 in [14]. The Activity in data set [7] was found to be 83%. The fraction unbound in [10] is 0.15. Also, the IC50 in [13] was 0.01 µM.
As to `Nc1c(C(=O)NCC(O)(CN(CCF)C(=O)c2c(F)cccc2F)C(F)(F)F)cnn1-c1ccc(F)cc1` (racemic), the bioavailability in data set [1] is 39%. The pIC50 in data set [2] was 5.10; in data set [4] it was 4.70; in data set [8], 7.70; in data set [9] it was 5.40; in [12], 6.30; in data set [14] it was 4.00. In data set [3], the Vd is 2.6 L/kg. In addition, the Activity in data set [5] turned out to be 94%; in [7], 93%. For the same compound, the clearance in data set [6] came to 21 mL/min/kg. Also, in [10], the fraction unbound was 0.07. The compound also showed a pEC50 in data set [11] of 7.30. In data set [13], the IC50 is 0.01 µM.
Regarding `CCN(CC(O)(CNC(=O)c1cnn(-c2ccc(F)cc2)c1N)C(F)(F)F)C(=O)c1c(Cl)cccc1Cl` (stereo not drawn), the pIC50 in data set [2] was 5.15; in [4], 4.05; in [8], 8.50; in data set [9], 6.10; in data set [12], 6.15; in data set [14] it was 4.00. For the same compound, the Activity is 101% in data set [5] and 95% in data set [7]. The fraction unbound in data set [10] was 0.01. In [11], the pEC50 was 8.70. Moreover, in data set [13], the IC50 was 0.000501 µM.
On to `Nc1c(C(=O)NCC(O)(CN(CCO)C(=O)c2c(Cl)cccc2Cl)C(F)(F)F)cnn1-c1ccc(F)cc1` (stereo not drawn), for which the pIC50 in [2] was 4.70; in [4] it was 4.27; in data set [9], 5.52; in data set [12] it was 4.00; in data set [14], 4.00. This compound came in with an Activity in data set [7] of 89%. The fraction unbound in data set [10] is 0.07.
In [1], `Nc1c(C(=O)NCC(O)(CN(CCO)C(=O)c2c(F)cccc2F)C(F)(F)F)cnn1-c1ccc(F)cc1` (stereo not drawn) yielded a bioavailability of 44%. For the same compound, the pIC50 was 4.40 in [2]; 4.00 in [4]; 7.80 in data set [8]; 4.89 in [9]; 4.12 in [12]; 4.00 in [14]. The Vd in [3] amounted to 0.9 L/kg. For the same compound, the Activity turned out to be 94% in data set [5] and 81% in data set [7]. This compound had a clearance in data set [6] of 8 mL/min/kg. The fraction unbound in data set [10] was 0.32. The pEC50 in [11] was 7.30. Further, the IC50 in [13] is 0.02 µM.
